The results in this text go back to patent publication US12123048B2, “Fluorinated 4′-alkylumbelliferyl a-D-glucopyranosides, biological sterilization indicators including the same and methods of using the same” (3M INNOVATIVE PROPERTIES COMPANY, priority 2018, dated 2024).

Molecules are shown by their SMILES.

This data set is described as follows: Measurement of enzyme substrate degradation (100° C. for 15 minutes) by fluorescence. The format is physicochemical. To be noted: no spores, read at 60° C. As for the experimental part: Luria-Bertani (LB) broth was prepared by dissolving tryptone (10 g/L), yeast extract (5 g/L), and NaCl (5 g/L) in deionized water. In the examples, 6′-fluoro-4′-methylumbelliferyl α-D-glucopyranoside (0.3 mg/mL) or 5′-fluoro-4′-methylumbelliferyl α-D-glucopyranoside (0.3 mg/mL) was added to the broth. In the comparative examples, 4′-methylumbelliferyl α-D-glucopyranoside (MUG) (0.3 mg/mL) or 6′,8′-Difluoro-4′-methylumbelliferyl α-D-glucopyranoside (0.3 mg/mL) was added to the broth. The pH of the broth was adjusted to either pH 6, pH 7, pH 8, or pH 9 using 0.1 N hydrochloric acid or 1N sodium hydroxide solutions. The broth was passed through a 0.22 micron filter prior to use.
(§1) An 800-microliter sample of LB broth (pH 6) containing 6′-fluoro-4′-methylumbelliferyl α-D-glucopyranoside (0.3 mg/mL) (enzyme substrate of Example 1) was added to a 1.5 mL microcentrifuge tube and the capped tube was placed in a heating block at 100° C. for 15 minutes. A metal block was placed on top of the tube to keep the cap sealed during heating. The sample was cooled to ambient temperature and then added to two wells (100 microliters per well) of a black 96-well microtiter plate with optically clear, flat bottom wells (NUNC #165301, Thermo Fisher Scientific). The top of the plate was covered with an optically clear sealing film (product #4311971, Applied Biosystems Corporation). The plate was warmed at 60° C. and shaken in a linear direction. Fluorescence readings (360 nm excitation/450 nm emission at 50% gain) were taken from the bottom of the plate. A reading was taken at an initial time point of 10 seconds and then at +1 minute intervals thereafter. A Synergy Neo2 fluorescence plate reader (BioTek Company) was used. In Table 5, the mean fluorescence values detected (RFU) at times of 10 seconds, +5 minutes, +10 minutes, and +30 minutes are reported.
as §1, with “7)” for “6)”, “6,” for “5,”
as §1, with “8)” for “6)”, “A Synergy Neo2 fluorescence plate reader (BioTek Company) was used. In Table 5, the mean fluorescence values detected (RFU) at times of 10 seconds, +5 minutes, +10 minutes, and +30 minutes are reported.” left out

Regarding `Cc1cc(=O)oc2c(F)c(O[C@H]3O[C@H](CO)[C@@H](O)[C@H](O)[C@H]3O)c(F)cc12` [Comparative Example A, 6′,8′-Difluoro-4′-methylumbelliferyl α-D-glucopyranoside], where the note is “pH 6 LB broth”, the “MEASURED FLUORESCENCE, RFU 10 sec” value is on record as 10,605 RFU; the “MEASURED FLUORESCENCE, RFU +5 min” value is on record as 10,851 RFU; the “MEASURED FLUORESCENCE, RFU +10 min” value is listed as 10,748 RFU; the “MEASURED FLUORESCENCE, RFU +30 min” value is reported as 10,663 RFU. Where the note is “pH 7 LB broth”, the “MEASURED FLUORESCENCE, RFU 10 sec” value stood at 12986 RFU; the “MEASURED FLUORESCENCE, RFU +5 min” value amounted to 13409 RFU; the “MEASURED FLUORESCENCE, RFU +10 min” value is 13403 RFU; the “MEASURED FLUORESCENCE, RFU +30 min” value is listed as 13283 RFU. Besides, under “pH 8 LB broth”, the “MEASURED FLUORESCENCE, RFU 10 sec” value is reported as 14015 RFU; the “MEASURED FLUORESCENCE, RFU +5 min” value is on record as 14483 RFU; the “MEASURED FLUORESCENCE, RFU +10 min” value was 14494 RFU; the “MEASURED FLUORESCENCE, RFU +30 min” value came to 14331 RFU. Moreover, where the note is “pH 9 LB broth”, the “MEASURED FLUORESCENCE, RFU 10 sec” value is given as 18584 RFU; the “MEASURED FLUORESCENCE, RFU +5 min” value is reported as 19052 RFU; the “MEASURED FLUORESCENCE, RFU +10 min” value is on record as 18990 RFU; the “MEASURED FLUORESCENCE, RFU +30 min” value is listed as 18683 RFU.

Consider `Cc1cc(=O)oc2cc(O[C@H]3O[C@H](CO)[C@@H](O)[C@H](O)[C@H]3O)c(F)cc12` [Example 1, 6′-Fluoro-4′-methylumbelliferyl α-D-glucopyranoside], for which, for the setting “pH 6 LB broth”, the “MEASURED FLUORESCENCE, RFU 10 sec” value is on record as 1108 RFU; the “MEASURED FLUORESCENCE, RFU +5 min” value is given as 1096 RFU; the “MEASURED FLUORESCENCE, RFU +10 min” value is reported as 1040 RFU; the “MEASURED FLUORESCENCE, RFU +30 min” value is 948 RFU. Further, under “pH 7 LB broth”, the “MEASURED FLUORESCENCE, RFU 10 sec” value is recorded as 1209 RFU; the “MEASURED FLUORESCENCE, RFU +5 min” value amounted to 1183 RFU; the “MEASURED FLUORESCENCE, RFU +10 min” value is recorded as 1130 RFU; the “MEASURED FLUORESCENCE, RFU +30 min” value is 1037 RFU. Also, under “pH 8 LB broth”, the “MEASURED FLUORESCENCE, RFU 10 sec” value stood at 1145 RFU; the “MEASURED FLUORESCENCE, RFU +5 min” value came out at 1130 RFU; the “MEASURED FLUORESCENCE, RFU +10 min” value is listed as 1092 RFU; the “MEASURED FLUORESCENCE, RFU +30 min” value came to 1026 RFU. Under “pH 9 LB broth”, the “MEASURED FLUORESCENCE, RFU 10 sec” value amounted to 1449 RFU; the “MEASURED FLUORESCENCE, RFU +5 min” value was determined as 1437 RFU; the “MEASURED FLUORESCENCE, RFU +10 min” value worked out at 1388 RFU; the “MEASURED FLUORESCENCE, RFU +30 min” value amounted to 1330 RFU.

`Cc1cc(=O)oc2cc(O[C@H]3O[C@H](CO)[C@@H](O)[C@H](O)[C@H]3O)cc(F)c12` [Example 2, 5′-Fluoro-4′-methylumbelliferyl α-D-glucopyranoside]: where the note is “pH 6 LB broth”, the “MEASURED FLUORESCENCE, RFU 10 sec” value came out at 933 RFU; the “MEASURED FLUORESCENCE, RFU +5 min” value worked out at 852 RFU; the “MEASURED FLUORESCENCE, RFU +10 min” value is reported as 805 RFU; the “MEASURED FLUORESCENCE, RFU +30 min” value is 758 RFU. In addition, under “pH 7 LB broth”, the “MEASURED FLUORESCENCE, RFU 10 sec” value worked out at 831 RFU; the “MEASURED FLUORESCENCE, RFU +5 min” value worked out at 777 RFU; the “MEASURED FLUORESCENCE, RFU +10 min” value is reported as 733 RFU; the “MEASURED FLUORESCENCE, RFU +30 min” value came out at 673 RFU. Under “pH 8 LB broth”, the “MEASURED FLUORESCENCE, RFU 10 sec” value worked out at 748 RFU; the “MEASURED FLUORESCENCE, RFU +5 min” value was 705 RFU; the “MEASURED FLUORESCENCE, RFU +10 min” value is listed as 658 RFU; the “MEASURED FLUORESCENCE, RFU +30 min” value was 579 RFU. Further, under “pH 9 LB broth”, the “MEASURED FLUORESCENCE, RFU 10 sec” value was found to be 675 RFU; the “MEASURED FLUORESCENCE, RFU +5 min” value was 625 RFU; the “MEASURED FLUORESCENCE, RFU +10 min” value is 584 RFU; the “MEASURED FLUORESCENCE, RFU +30 min” value stood at 530 RFU.

For `Cc1cc(=O)oc2cc(O[C@H]3O[C@H](CO)[C@@H](O)[C@H](O)[C@H]3O)ccc12` [MUG, 4′-methylumbelliferyl-α-D-glucopyranoside], under “pH 6 LB broth”, the “MEASURED FLUORESCENCE, RFU 10 sec” value worked out at 967 RFU; the “MEASURED FLUORESCENCE, RFU +5 min” value is 909 RFU; the “MEASURED FLUORESCENCE, RFU +10 min” value is on record as 852 RFU; the “MEASURED FLUORESCENCE, RFU +30 min” value was 782 RFU. For the setting “pH 7 LB broth”, the “MEASURED FLUORESCENCE, RFU 10 sec” value came to 823 RFU; the “MEASURED FLUORESCENCE, RFU +5 min” value is 790 RFU; the “MEASURED FLUORESCENCE, RFU +10 min” value came to 745 RFU; the “MEASURED FLUORESCENCE, RFU +30 min” value was found to be 670 RFU. For the same compound, for the setting “pH 8 LB broth”, the “MEASURED FLUORESCENCE, RFU 10 sec” value turned out to be 714 RFU; the “MEASURED FLUORESCENCE, RFU +5 min” value was found to be 685 RFU; the “MEASURED FLUORESCENCE, RFU +10 min” value is given as 643 RFU; the “MEASURED FLUORESCENCE, RFU +30 min” value amounted to 567 RFU. In addition, for the setting “pH 9 LB broth”, the “MEASURED FLUORESCENCE, RFU 10 sec” value is on record as 654 RFU; the “MEASURED FLUORESCENCE, RFU +5 min” value is 622 RFU; the “MEASURED FLUORESCENCE, RFU +10 min” value is recorded as 575 RFU; the “MEASURED FLUORESCENCE, RFU +30 min” value came to 500 RFU.
